pEC50: −log10 of the molar value.

The source of these data is patent publication US9051339B2, “Sulfur-containing bicyclic compound” (Astellas Pharma Inc., priority 2013, dated 2015).

The target in experiment [1] is T1, heterodimers of GABAB1b and GABAB2 (Homo sapiens, UniProt O75899+Q9UBS5).
T1 construct: host or cells: HEK293
In words: FLIPR intracellular calcium mobilization in HEK293 cells stably expressing GABAB receptor. Type of experiment: cell-based. As to conditions: 100 μM GABA = 100%; for pEC50: concentration raising reaction rate from 5% with 1 μM GABA to 50%, read-out: Potency (PAM Potency of GABAB); for Emax: maximum reaction rate in presence of 1 μM GABA, test drug up to 30 μM, read-out: Efficacy (PAM Efficacy of GABAB). The source says: A natural GABAB receptor has a heterodimeric structure consisting of two kinds of subunits of GABAB1 and GABAB2 (Nature, 1997, vol. 386, p. 239-246) In the subunit of GABAB1, two major splice variants referred to as GABAB1a and 1b exist. However, the two variants have no difference in the pharmacological effects in the receptor-downstreaming signals (Nature, 1998, vol. 396, p. 683-687).
In HEK293 cells expressing the heterodimers of GABAB1b and GABAB2, the PAM action in the presence of GABA was measured over time with a change in the intracellular Ca^2+ concentration using RFU (relative fluorescence units) as an index, and evaluated.
All vectors, wherein each vector was formed by human GABAB1b (NM_021903. 2), GABAB2 (NM_005458. 7), or Gαqo chimera, were incorporated by lipofection to establish stably expressing human embryonic kidney-derived cell lines, HEK293 cells (ATCC).
The Gαqo chimera was fabricated by the following method. The genes coding human Gαq (NM_002072.3) were cloned, and C-terminal 15 base pairs (1107-1121 bp) of ORF (41-1121 bp) of Gaq was substituted with C-terminal 15 base pairs (1948-1962 bp) of ORF (898-1962 bp) of human Gao (NM_138736. 2) into a Gαqo chimera.
A change in the intracellular concentration of calcium mobilized due to activation of a GABAB receptor was measured with a Fluorometric Imaging Plate Reader (FLIPR, Molecular Devices). The stably expressing cells established as described above were proliferated in a D-MEM medium containing a screening agent (0.5 mg/mL G418 Disulfate and 0.2 mg/mL Hydromycin B solution), 1% penicillin/streptomycin, and 10% FCS. About 1×10^4 cells/well were diluted and seeded in a black-wall, 384-well poly-D-lysin-coated plate (Becton Dickinson) in a D-MEM medium containing 10% FCS, but not a selective agent and 1% penicillin/streptomycin. After 24 hours, the medium was removed from the plate, and a Fluo-4 loaded solution (20 μL) was added to each well, followed by incubation at room temperature for 2 hours. The fluorescent reagent loaded solution was removed from each well, the cells were washed with a base buffer three times, and then a base buffer (20 μL) was added thereto, followed by analysis with FLIPR TETRA (Molecular Devices). The base buffer (10 μL) solution of the test drug was added thereto to a final concentration (1 nM to 30 μM) and the measurement of a change in the fluorescence was initiated. Thereafter, GABA (1 μM, 20 μL) was added thereto and the measurement was continued. The change in the fluorescence was measured every two or five seconds.
The maximum reaction rate of 100 μM GABA was taken as 100%. […]
A general note: Calcium flux is commonly read through the fluorescence of an indicator in the cells.

Experiment [2] has as its system pressure pain threshold in the gastrocnemius muscle. The experiment in a line: Pressure pain threshold in model with reserpine-induced muscle pain. The class given is in vivo. To be noted: oral, measured after 30 minutes; male SD rat; reserpine 1 mg/kg s.c. for 3 days. The protocol:
This model is a model that mimics the pathological conditions of fibromyalgia. This test was carried out on the basis of the description in Pain, 2009, vol. 146, p. 26-33. Reserpine (1 mg/kg) was subcutaneously administered to the male SD rat (Japan SLC, Inc.)) once per day for 3 days. After 5 days, the solvent or the test drug was orally administered. After 30 minutes, the pressure pain threshold value was measured using a Randall-Selitto instrument (Muromachi Kikai Co., Ltd.) in the gastrocnemius muscle. The significant difference assay between the solvent group and the group administered with the test drug was carried out by comparison between the groups using a Student's t-test or a Dunnett's multiple comparison test. Here, the value obtained by administering a solvent to a normal rat not administered with reserpine was taken as 100%, and the value of the reserpine group administered with a solvent was taken as 0%. In each assay, if p<0.05 was satisfied, it was determined that there was a significant difference.

T1 sequence (Q9UBS5 1-844 isoform Q9UBS5-2): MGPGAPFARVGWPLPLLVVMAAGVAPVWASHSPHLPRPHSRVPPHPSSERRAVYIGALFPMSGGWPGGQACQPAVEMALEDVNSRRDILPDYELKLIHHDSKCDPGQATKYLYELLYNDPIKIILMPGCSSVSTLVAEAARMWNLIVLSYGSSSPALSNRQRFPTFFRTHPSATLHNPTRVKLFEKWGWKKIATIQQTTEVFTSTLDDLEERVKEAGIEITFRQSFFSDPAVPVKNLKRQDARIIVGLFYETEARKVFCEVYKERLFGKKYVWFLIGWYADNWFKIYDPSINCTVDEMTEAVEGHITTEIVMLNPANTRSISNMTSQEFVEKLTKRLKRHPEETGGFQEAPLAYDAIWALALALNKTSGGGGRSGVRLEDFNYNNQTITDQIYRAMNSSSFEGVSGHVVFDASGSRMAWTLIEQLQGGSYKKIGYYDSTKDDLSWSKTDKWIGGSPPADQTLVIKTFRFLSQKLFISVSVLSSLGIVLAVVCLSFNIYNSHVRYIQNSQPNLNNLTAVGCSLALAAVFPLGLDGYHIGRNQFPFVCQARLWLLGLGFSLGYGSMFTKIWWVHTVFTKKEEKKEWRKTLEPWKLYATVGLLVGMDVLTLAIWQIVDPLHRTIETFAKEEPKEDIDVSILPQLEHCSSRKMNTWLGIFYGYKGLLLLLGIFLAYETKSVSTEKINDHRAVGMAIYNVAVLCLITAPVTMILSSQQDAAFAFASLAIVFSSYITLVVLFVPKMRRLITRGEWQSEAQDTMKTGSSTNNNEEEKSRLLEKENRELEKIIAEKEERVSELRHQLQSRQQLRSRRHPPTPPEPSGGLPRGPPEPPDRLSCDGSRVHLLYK
T1 sequence (O75899 42-941): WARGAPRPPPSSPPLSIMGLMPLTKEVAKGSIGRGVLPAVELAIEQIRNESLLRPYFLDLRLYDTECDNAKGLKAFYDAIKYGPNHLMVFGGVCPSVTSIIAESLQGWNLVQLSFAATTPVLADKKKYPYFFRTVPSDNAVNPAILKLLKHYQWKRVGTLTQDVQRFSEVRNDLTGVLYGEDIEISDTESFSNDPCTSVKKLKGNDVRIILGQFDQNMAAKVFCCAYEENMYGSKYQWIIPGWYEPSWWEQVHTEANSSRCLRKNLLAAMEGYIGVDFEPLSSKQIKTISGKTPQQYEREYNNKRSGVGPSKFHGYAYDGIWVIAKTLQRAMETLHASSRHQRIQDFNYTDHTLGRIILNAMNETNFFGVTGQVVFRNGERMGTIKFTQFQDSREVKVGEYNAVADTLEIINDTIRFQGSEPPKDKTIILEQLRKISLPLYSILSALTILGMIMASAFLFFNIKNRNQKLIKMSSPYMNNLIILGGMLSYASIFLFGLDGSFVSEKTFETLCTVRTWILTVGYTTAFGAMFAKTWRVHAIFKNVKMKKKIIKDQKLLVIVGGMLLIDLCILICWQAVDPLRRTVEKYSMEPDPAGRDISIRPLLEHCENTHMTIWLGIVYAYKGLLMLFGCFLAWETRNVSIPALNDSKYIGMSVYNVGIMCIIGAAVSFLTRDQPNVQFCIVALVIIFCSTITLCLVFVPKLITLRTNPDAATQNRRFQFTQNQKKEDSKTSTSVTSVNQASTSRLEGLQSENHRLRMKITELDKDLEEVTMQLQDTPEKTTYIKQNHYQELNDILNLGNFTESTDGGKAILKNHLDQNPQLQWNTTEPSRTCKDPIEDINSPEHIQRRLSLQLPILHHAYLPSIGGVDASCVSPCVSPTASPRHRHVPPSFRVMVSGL

For the molecule `Cc1nc(CN2CCS(=O)(=O)CC2)c2cc(C3CCC(C)(C)CC3)sc2n1` [Ex2, 6-(4,4-dimethylcyclohexyl)-4-[(1,1-dioxidothiomorpholin-4-yl)methyl]-2-methylthieno[2,3-d]pyrimidine], in experiment [1], the pEC50 is 7.23 and the Emax came to 470%. In experiment [2], this molecule had an MED of 0.03 mg/kg.

`Cc1nc(CN2CC[C@@H](O)[C@H](O)C2)c2cc(C3CCC(C)(C)CC3)sc2n1` (single isomer, unassigned) [Ex31, trans-1-{[6-(4,4-dimethylcyclohexyl)-2-methylthieno[2,3-d]pyrimidin-4-yl]methyl}piperidine-3,4-diol]: in experiment [1], the pEC50 was 6.66 and the Emax stood at 273%.
